{"source": "paper PMC9293466", "about": "(Chembiochem, 2021)", "molecular_target": "T1, Gc4EO (Gulosibacter chungangensis, UniProt A0A7J5BGR1)", "T1 sequence (A0A7J5BGR1 1-529)": "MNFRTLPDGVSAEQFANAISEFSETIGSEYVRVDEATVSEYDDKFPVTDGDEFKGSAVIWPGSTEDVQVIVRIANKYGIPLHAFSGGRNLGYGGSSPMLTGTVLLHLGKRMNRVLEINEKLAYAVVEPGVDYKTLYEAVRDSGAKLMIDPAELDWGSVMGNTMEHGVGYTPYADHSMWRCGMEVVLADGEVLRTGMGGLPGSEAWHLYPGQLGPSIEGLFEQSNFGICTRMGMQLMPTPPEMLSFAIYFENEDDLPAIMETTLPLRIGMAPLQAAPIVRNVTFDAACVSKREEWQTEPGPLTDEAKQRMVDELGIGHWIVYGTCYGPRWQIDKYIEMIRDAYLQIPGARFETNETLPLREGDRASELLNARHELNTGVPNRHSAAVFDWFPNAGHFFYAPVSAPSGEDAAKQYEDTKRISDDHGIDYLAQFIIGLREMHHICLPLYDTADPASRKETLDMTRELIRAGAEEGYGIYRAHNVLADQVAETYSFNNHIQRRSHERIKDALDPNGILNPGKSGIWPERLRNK", "assay": "X-ray crystal structure, […] Å", "type": "binding", "conditions": "covalent; C8M of FAD to His395; pH 8.0 crystals", "data": [{"smiles": "Cc1cc2nc3c(=O)[nH]c(=O)nc-3n(C[C@H](O)[C@H](O)[C@H](O)COP(=O)(O)OP(=O)(O)OC[C@H]3O[C@@H](n4cnc5c(N)ncnc54)[C@H](O)[C@@H]3O)c2cc1C", "note": "[FAD]", "values": [{"measurement": "X-ray crystal structure, 1.7 Å", "value": "showing the covalent bond between the C8 M of FAD and His395"}]}]}
